Experimental data from US4312861A, “Pharmaceutical compositions containing N-alkyl-N-(nuclearly-substituted) benzylamines having vasotonia-regulating activity” (Hoechst Aktiengesellschaft, priority 1974, dated 1982).

Key:
[1] = system: permeability of the capillaries; test: Histamine rash test (modified Halpern), capillary permeability; assay type: in vivo; settings: 30 minutes before histamine
Description: The test according to Halpern (Presse medicale 65 (1949), page 949) was used in modified form. The suppressive effect of the compounds according to the invention on the permeability of the capillaries was tested. The blue coloration induced by intravenous administration of trypan blue at two intracutaneous histamine injection points per animal, (trypan blue administered 2 minutes before the histamine), was estimated according to the following scale of values:
indications of blue coloration
clear blue coloration =4
stong blue coloration =6
The preceding evaluation was made from the combined effect at the two injection points.
The test substances were administered i.p. 30 minutes before the histamine injection.

[2] = system: carrageenin oedema in the rat paw; test: Suppression of carrageenin oedema in the rat paw (Siegmund); assay type: in vivo; settings: 3 h p.a.
Description: (7) Suppression of carrageenin oedema in the rat paw
The inflammation-reducing and anti-oedematous effects on carrageenin and serotonin oedemas in the rat paw were studied according to Siegmund et al (Proc. Soc. exp. Biol. Med. 95 (1957), page 729). The values are given as percentages, based on the values obtained in control tests using a dummy procedure. In this way, the antiphlogistic activity of the substances according to the invention was tested.

[3] = system: isolated guinea-pig heart; test: Relative coronary blood-flow change in isolated guinea-pig heart (Langendorff)
Description: (4) Relative coronary blood-flow change in an isolated guinea-pig heart.
The tests were carried out according to the method of Langendorff (Pflugers Archiv. 61 (1895), page 219).
In Table 5, the change in coronary blood flow after administration of various quantities of the test substance is compared with that after administration of the known compounds heptaminol and Aescin sodium salt.

[4] = system: perfused rabbit ear; test: Blood-flow change in perfused isolated rabbit ear, vaso-dilator activity (Ringer-Norfenefrin solution)
Description: (3) Blood-flow change in an isolated rabbit ear
The tests were carried out according to Krakow-Pissemski (Pflugers Archiv 151 (1913), page 583 and 156 (1914), page 426). In Table 5a the estimated values of the vaso-constrictor activity in Ringer solutions of varying concentrations are given and in Table 5b values for vasodilatory activity in Ringer-Norfenefrin solutions of varying concentrations are given. As a comparison, the values obtained with the known preparation aescin sodium are given.

[5] = Toxicity in the mouse (Litchfield and Wilcoxon); assay type: in vivo; settings: mouse, in vivo
Description: (6) Toxicity in the mouse
Toxicity was determined according to Litchfield and Wilcoxon (J. Pharmacol. exp. Ther. 97 (1949), page 399) in the mouse. In comparison, the values with the known substance aescin sodium salt were determined. Comparative tests with 0.1% solution, of venous and optical compatibility on the rabbit yielded similar results.

[6] = system: writhing movements in the mouse; test: Writhing test (Winter); assay type: in vivo
Source text: The analgesic activity of the compounds according to the invention were studied by the method of Winter et al (Proc. Soc. exp. Biol. Med, 111 (1962), page 544), in which the suppression of writhing movements in the mouse was observed.

[7] = system: isolated portal vein; test: Isolated rat's portal vein (Berti), increase in tonus
Description: (2) Isolated rat's portal vein
The tests on the rat's portal vein, an organ with its own rhythm, were performed according to the method of Berti et al (Arch. int. Pharmacodyn. 184 (1970), page 328). In Table 4, the increase in tonus at various adrenalin concentrations is given in milligrams. As a comparison, the values for the known substance heptaminol (=6-amino-2-methylheptane-2-ol) are also given.

[8] = 10 μg (first figure where two are given)
[9] = 30 μg (first figure where two are given)
[10] = 100 μg (first figure where two are given)

Structure (SMILES): CCCCCC(C)NCc1c(C)cc(C)cc1C (single isomer, unassigned) [compound 3]
- Histamine rash test, blue coloration score (0 = none, 2 = indications, 4 = clear, 6 = strong) ([1]; 1.0 mg/kg i.p.): 2.5
- Histamine rash test, blue coloration score (0 = none, 2 = indications, 4 = clear, 6 = strong) ([1]; 3.0 mg/kg i.p.): 2.5
- Suppression of carrageenin oedema in the paw (antiphlogistic activity) ([2]; 100 mg/kg p.o.): 11%
- Relative change in coronary blood flow [3, 8]: +14
- Relative change in coronary blood flow [3, 9]: +19
- Relative change in coronary blood flow [3, 10]: +30
- Relative change in blood flow, vaso-dilator activity ([4]; 3 × 10^-5 g/ml): +38
- Relative change in blood flow, vaso-dilator activity ([4]; 10^-5 g/ml): +105
- Relative change in blood flow, vaso-dilator activity ([4]; 10^-6 g/ml): +43
- Relative change in blood flow, vaso-dilator activity ([4]; 10^-7 g/ml): +3
- LD50 ([5]; ip): 50 to 100 mg/kg
- LD50 ([5]; iv): 10.8 mg/kg

Structure (SMILES): CCCCCC(C)NCc1ccc(Cl)cc1 (single isomer, unassigned) [compound 8]
- Suppression of writhing movements ([6]; 50 mg/kg p.o.): 15%
- Relative change in blood flow, vaso-dilator activity ([4]; 3 × 10^-5 g/ml): +66
- Relative change in blood flow, vaso-dilator activity ([4]; 10^-6 g/ml): +3
- LD50 ([5]; ip): 25 to 100 mg/kg

Structure (SMILES): CC(N)CCCC(C)(C)O (stereo not shown) [Heptaminol, 6-amino-2-methylheptane-2-ol, reference compound]
- Increase in tonus, isolated rat's portal vein ([7]; 10^-4 g/ml): +47 milligrams
- Increase in tonus, isolated rat's portal vein ([7]; 10^-5 g/ml): +9 milligrams
- Increase in tonus, isolated rat's portal vein ([7]; 10^-6 g/ml): +9 milligrams
- Relative change in coronary blood flow [3, 8]: 0
- Relative change in coronary blood flow [3, 9]: 0
- Relative change in coronary blood flow [3, 10]: 0
- Effect on coronary vessels of the guinea-pig heart ([3]; in words): no effect on the guinea-pig heart
- Effect on vessels of the tonicised rabbit ear ([4]; in words): intensifies the Ringer-Norfenefrin constriction in the rabbit ear
- Control test with heptaminol, rabbit ear (footnote ++) ([4]; mark in 10^-4 g/ml line): constriction

Structure (SMILES): CCCCCC(C)NCc1c(C)c(C)cc(C)c1C (stereo not shown) [compound 1]
- Relative change in coronary blood flow, second figure after slash ([3]; 10 μg): -14
- Relative change in coronary blood flow [3, 8]: +53
- Relative change in coronary blood flow, second figure after slash ([3]; 30 μg): -11
- Relative change in coronary blood flow [3, 9]: +130
- LD50 ([5]; ip): 50 to 100 mg/kg

Structure (SMILES): CCCCCC(C)NCc1c(C)cc(C(C)(C)C)cc1C (stereo not shown) [compound 5]
- Relative change in coronary blood flow [3, 8]: +118
- Relative change in coronary blood flow [3, 9]: +280

Structure (SMILES): CCCCCC(C)NCc1cc(C(C)(C)C)ccc1C (stereo not shown) [compound 6]
- Relative change in coronary blood flow [3, 8]: +129
- Relative change in coronary blood flow [3, 9]: +187

Structure (SMILES): CCCCCC(C)NCc1ccc(F)cc1 (stereo not shown) [compound 7]
- Suppression of writhing movements ([6]; 40 mg/kg p.o.): 46%
- Suppression of writhing movements ([6]; 63 mg/kg p.o.): 67%
- Suppression of writhing movements ([6]; 100 mg/kg p.o.): 77%
- Suppression of carrageenin oedema in the paw (antiphlogistic activity) ([2]; 25 mg/kg p.o.): 53%
- Suppression of carrageenin oedema in the paw (antiphlogistic activity) ([2]; 63 mg/kg p.o.): 71%
- Relative change in blood flow, vaso-dilator activity ([4]; 3 × 10^-5 g/ml): +34
- LD50 ([5]; ip): 100 to 250 mg/kg

Structure (SMILES): CCCCCC(C)NCc1ccccc1Cl (stereo not shown) [compound 9]
- LD50 ([5]; ip): 100 to 250 mg/kg

Structure (SMILES): CCCCCC(C)NCc1c(Cl)cccc1Cl (stereo not shown) [compound 10]
- Relative change in coronary blood flow [3, 8]: +33

Structure (SMILES): CCCCCC(C)NCc1cccc(Br)c1 (stereo not shown) [compound 11]
- LD50 ([5]; ip): 100 to 250 mg/kg

Structure (SMILES): CCCCCC(C)NCc1ccccc1Br (stereo not shown) [compound 12]
- Relative change in blood flow, vaso-dilator activity ([4]; 3 × 10^-5 g/ml): +12
- LD50 ([5]; ip): 100 to 250 mg/kg

Structure (SMILES): CCCCCC(C)NCc1ccc([N+](=O)[O-])cc1 (stereo not shown) [compound 13]
- Suppression of carrageenin oedema in the paw (antiphlogistic activity) ([2]; 63 mg/kg p.o.): 17%
- Suppression of carrageenin oedema in the paw (antiphlogistic activity) ([2]; 100 mg/kg p.o.): 59%
- LD50 ([5]; ip): 100 to 250 mg/kg

Structure (SMILES): CCCCCNCc1c(C)cc(C)cc1C [compound 14]
- LD50 ([5]; ip): 50 to 100 mg/kg

Structure (SMILES): CCCCCCNCc1c(C)cc(C)cc1C [compound 15]
- Relative change in coronary blood flow, second figure after slash ([3]; 30 μg): -21
- Relative change in coronary blood flow [3, 9]: +68
- Relative change in coronary blood flow, second figure after slash ([3]; 100 μg): -17
- Relative change in coronary blood flow [3, 10]: +85
- LD50 ([5]; ip): 50 to 100 mg/kg
